From patent US6713269B2, “Methods for identifying potential therapeutic agents for treatment of osteoporosis using mitogenic indices” (co.don Aktiengesellschaft, priority 1995, dated 2004)

System: human osteoblast precursor cells
Experiment: Cell proliferation rate under the influence of growth factors, using bromodeoxyuridine incorporation (BrdU incorporation)
Assay type: cell-based
Details: 54 h incubation + 18 h BrdU labelling, OD at 405 nm
Procedure: 3,000 osteoblastic cells from fractions t1 to 2 up to the second passage, recovered from osteoporotic patients (OP cells), per well of a 96-well microwell plate were incubated in the presence of 10% FCS and 10% inactivated human control serum in a cell culture medium (α-MEM and HAM-S F12 medium […]) for 48 h, 120 h and 192 h. In parallel, 3,000 osteoblastic cells from non-osteoporotic patients were incubated under the same conditions. The number of intact cells was determined by means of trypan blue staining and counting in a counting chamber. 4. Determination of the cell proliferation rate under the influence of the three growth factors 1, 2 and 3 using bromodeoxyuridine incorporation (BrdU incorporation) Growth factor 1 =TGF-β2
Cells from fraction 1 and/or 2 of each punched-out bone piece up to the 2nd passage were used in the proliferation test.
3 ×10^3 cells from the first and/or second passage per well of a 96-well plate and 200 μl of medium were used.
The cells were cultivated for three days under the conditions previously described and subsequently cultivated further for one day in medium with no serum until subconfluence was reached.
Thereafter, the three growth factors 1, 2 and 3 were added to the cells at four different final concentrations (100, 10, 1, and 0.1 ng/ml medium).
Cells in a medium containing 10% FKS and in a medium containing 5% Ultroser served as controls.
Triplets were set up for all concentrations and controls.
Six wells including cells, to which no bromodeoxyuridine had been added during the proliferation test served as blank controls.
After 54 hours of incubation with the growth factors, the proliferation test (5-Bromo-2′-deoxyuridine Labeling and Detection Kit III by Boehringer Mannheim) was initiated by adding 20 μl of labelling solution diluted 1:90 in 1% BSA medium and subsequent incubation for 18 hours.
The proliferation test was conducted according to the manufacturer's instructions.
Evaluation of the proliferation test was effected by measuring the optical density (OD) at 405 nm in an ELISA reader. After 60 minutes of color development, the absorbance was measured 12 times at intervals of 5 minutes.

Substance	Absorbance mean value (0.1 ng/ml medium)	Absorbance mean value (1 ng/ml medium)	Absorbance mean value (10 ng/ml medium)	Absorbance mean value (100 ng/ml medium)
IGF I: protein growth factor 2 (insulin-like growth factor I)	0.151	0.148	0.140	0.140
IGF II: protein growth factor 3 (insulin-like growth factor II)	0.148	0.150	0.139	0.140
